{"source": "patent US5663205A", "about": "“Pharmaceutical composition for use in glaucoma treatment” (Senju Pharmaceutical Co. Ltd., priority 1992, dated 1997)", "key": {"[1]": {"experiment": "Stability of aqueous solution against heat and light", "type": "physicochemical"}, "[2]": {"test_system": "corneal epithelial and endothelial cells", "experiment": "Test Example 7 (2)(e): scanning electron microscope evaluation of corneal epithelial and endothelial cells", "type": "in vivo, Japanese white rabbits", "conditions": "1% and 0.5% ophthalmic solutions, 28 days", "description": "(2) Ocular local toxicity test in rabbits of 1.0% and 0.5% ophthalmic solutions of amosulalol hydrochloride by consecutive instillation for 28 days: With 15 male Japanese white rabbits divided into 3 groups each consisting of 5 rabbits, 1.0% and 0.5% ophthalmic solutions of amosulalol hydrochloride as well as physiological saline as a control were applied in one drop (0.05 ml) per time to the right eye of each rabbit alone, four times a day at a regular interval of 2.5 hours, for 28 days consecutively with the left eye being left untreated. (e) Evaluation with a scanning electron microscope of corneal epithelial and endothelial cells; After completion of the instillation of 1.0% and 0.5% ophthalmic solutions of amosulalol hydrochloride, morphological observation was done on corneal epithelial and endothelial cells in 3 eyes each of the two groups."}, "[3]": {"test_system": "Normal Intraocular Pressure", "experiment": "Test Example 1 (1): intraocular pressure reducing activity on normal intraocular pressure, pigmented rabbits", "type": "in vivo, pigmented rabbits (Dutch belted rabbits)", "description": "Intraocular Pressure Reducing Activity of Amosulalol Hydrochloride on Normal Intraocular Pressure in Pigmented Rabbits Male pigmented rabbits (Dutch belted rabbits) weighing about 2 kg, after having been confirmed to be free from ocular abnormalities; were bred in a breeding room maintained at a temperature of 24± 4° C. and at a relative humidity of 55± 15%, while they were given solid food (Labo RG-RO manufactured by Nihon Nohsan Kogyo K.K.) at a daily rate of 100 g per rabbit and allowed free access to tap water as drinking water. As a test drug, amosulalol hydrochloride was processed into 0.05% (hereinafter, the term \"%\" is to be understood to designate \"w/v %\") and 1.0% aqueous solutions which were used in the test, and 0.5% timolol maleate ophthalmic solution [Timoptol (registered trademark): Ban-yu Pharmaceutical Co.] and physiological saline were used as a positive control drug and a control substance, respectively. (1) Measurement of intraocular pressure: Thirty two (32) rabbits were divided into four groups each consisting of 8 rabbits, and 50 μl of test drugs as well as the control drug and physiological saline were applied topically to one eye each of the individual rabbits, with the other being left untreated. Before instillation and 0.5, 1, 2, 3, 4, 6 and 8 hours after topical application,intraocular pressure for both of eyes of each rabbit was measured using a Pneumatonograph (manufactured by Alcon Co. Hereinafter referred to briefly as \"PTG\"). Shown in FIG. 1 are time-course changes of intraocular pressure taken with the eyes treated by instillation of each of the test drugs, control drug and physiological saline, with time (hour) after instillation taken as abscissa and intraocular pressure (mmHg as ordinate; each value in mean±S.E. (number of cases is 8). The signs \"a\", \"b\", \"d\" and \"e\" designate physiological saline, 0.05% aqueous solution of amosulalol hydrochloride, 1.0% aqueous solution of amosulalol hydrochloride, and 0.5% ophthalmic solution of timolol maleate, respectively."}, "[4]": {"experiment": "Test Example 7 (2)(a),(b): general conditions and body weight, 28 days instillation", "type": "in vivo, Japanese white rabbits", "conditions": "1% and 0.5% ophthalmic solutions, 4 times a day", "description": "(2) Ocular local toxicity test in rabbits of 1.0% and 0.5% ophthalmic solutions of amosulalol hydrochloride by consecutive instillation for 28 days: With 15 male Japanese white rabbits divided into 3 groups each consisting of 5 rabbits, 1.0% and 0.5% ophthalmic solutions of amosulalol hydrochloride as well as physiological saline as a control were applied in one drop (0.05 ml) per time to the right eye of each rabbit alone, four times a day at a regular interval of 2.5 hours, for 28 days consecutively with the left eye being left untreated. (a) General conditions; Observation was made on the […] for general conditions once a week. (b) Body weight measurement; Body weight was measured once a week."}, "[5]": {"test_system": "Hypertensive Intraocular Pressure Induced by Water Loading", "experiment": "Test Example 4: hypertensive intraocular pressure induced by water loading, white rabbits", "type": "in vivo", "conditions": "0.5% aqueous solution", "description": "Intraocular Pressure Reducing Activity of 0.5% Aqueous Solution of Amosulalol Hydrochloride on Hypertensive Itraocular Pressure Induced by Water Loading White Rabbits\nWith 5 male white rabbits weighing about 2 kg used as test animals, 50 μl of 0.5% aqueous solution of amosulalol hydrochloride was applied to one eye of each rabbit, with 50 μl of physiological saline being given to the other, and drinking water, 60 ml/kg (37° C.) was loaded by means of an oral probe 30 min later. Intraocular pressure was measured for both eyes using PTG before instillation as well as before water loading and 0.5, 1, 2 and 4 hours after the same.\nFIG. 6 is a graph showing the intraocular pressure reducing activity of 0.5% aqueous solution of amosulalol hydrochloride on hypertensive intraocular pressure induced by water loading in white rabbits with time (hour) after instillation taken as abscissa and intraocular pressure (mmHg) as ordinate; each value in mean ± S.E. (number of cases is […])."}, "[6]": {"test_system": "eyeball", "experiment": "Test Example 7 (2)(f): optical microscope evaluation of a sagittal section of the eyeball", "type": "in vivo, Japanese white rabbits", "conditions": "1% and 0.5% ophthalmic solutions, 28 days", "description": "(2) Ocular local toxicity test in rabbits of 1.0% and 0.5% ophthalmic solutions of amosulalol hydrochloride by consecutive instillation for 28 days:\nWith 15 male Japanese white rabbits divided into 3 groups each consisting of 5 rabbits, 1.0% and 0.5% ophthalmic solutions of amosulalol hydrochloride as well as physiological saline as a control were applied in one drop (0.05 ml) per time to the right eye of each rabbit alone, four times a day at a regular interval of 2.5 hours, for 28 days consecutively with the left eye being left untreated.\n(f) Evaluation with an optical microscope of a sagittal section of the eyeball;\nAfter completion of the instillation of 1.0% and 0.5% ophthalmic solutions of amosulalol hydrochloride, specimens for optical microscopy were prepared each having a sagittal section of the eyeball from 2 eyes each of the two groups to conduct microscopic examination of the eyelid, conjunctiva, cornea, anterior segment, iris, crystalline lens vitreous body, retinochoroid membrane, screla and optic nerve."}, "[7]": {"test_system": "pupil diameter", "experiment": "Test Example 1 (2): pupil diameter, pigmented rabbits", "type": "in vivo, pigmented rabbits (Dutch belted rabbits)", "conditions": "treated eyes, 0.5 to 6 hours after topical application", "description": "Male pigmented rabbits (Dutch belted rabbits) weighing about 2 kg, after having been confirmed to be free from ocular abnormalities; were bred in a breeding room maintained at a temperature of 24± 4° C. and at a relative humidity of 55± 15%, while they were given solid food (Labo RG-RO manufactured by Nihon Nohsan Kogyo K.K.) at a daily rate of 100 g per rabbit and allowed free access to tap water as drinking water. As a test drug, amosulalol hydrochloride was processed into 0.05% (hereinafter, the term \"%\" is to be understood to designate \"w/v %\") and 1.0% aqueous solutions which were used in the test, and 0.5% timolol maleate ophthalmic solution [Timoptol (registered trademark): Ban-yu Pharmaceutical Co.] and physiological saline were used as a positive control drug and a control substance, respectively. (2) Measurement of pupil diameter: With each of the rabbits as used under the above item (1), pupil diameter was measured for both eyes using a micrometer caliper, before instillation and 0.5, 1, 2, 3, 4, and 6 hours after topical application of the individual test drugs and physiological saline, respectively."}}}
{"smiles": "COc1ccccc1OCCNCC(O)c1ccc(C)c(S(N)(=O)=O)c1.Cl", "note": "(centres unmarked) [amosulalol hydrochloride, 5-[1-hydroxy-2-[2-(2-methoxyphenoxy)ethylamino]ethyl]-2-methylbenzenesulfonamide hydrochloride]", "values": [{"measurement": "stability against heat and light", "setting": "[1]", "value": "stable"}, {"measurement": "scanning electron microscope evaluation of corneal epithelial and endothelial cells", "setting": "[2]", "value": "no abnormalities"}, {"measurement": "maximum decrease in intraocular pressure", "setting": "[3]; 0.05% aqueous solution, 2 hours after topical application", "value": 3.6, "unit": "mmHg"}, {"measurement": "maximum decrease in intraocular pressure", "setting": "[3]; 1.0% aqueous solution, 50 μl topical, 3 hours after instillation", "value": 9.0, "unit": "mmHg"}, {"measurement": "decrease in intraocular pressure sustained until (time after instillation)", "setting": "[3]; 1.0% aqueous solution, sustained from 30 min after instillation", "value": 6, "unit": "h"}, {"measurement": "body weight measurement", "setting": "[4]", "value": "no abnormalities"}, {"measurement": "general conditions", "setting": "[4]", "value": "no abnormalities"}, {"measurement": "increase in intraocular pressure after water loading", "setting": "[5]; 30 min after water loading, physiological saline 8.7 mmHg", "value": 3.4, "unit": "mmHg"}, {"measurement": "effect on increase in intraocular pressure compared with physiological saline", "setting": "[5]; water loading", "value": "significantly reduced the increase in intraocular pressure"}, {"measurement": "optical microscope evaluation of a sagittal section of the eyeball", "setting": "[6]", "value": "no abnormalities"}, {"measurement": "change in pupil diameter", "setting": "[7]", "value": "no significant change in the pupil diameter"}]}
